Test results published in patent publication US4620014A, “2-furylbutyrolactones and methods for using same” (priority 1983, dated 1986).

System: L5178Y target cells
Assay: MLTC assay of CTL activity, L5178Y target cells
Type: cell-based, mouse
From the text: A mixed lymphocyte tumor culture (MLTC) immunoassay, used to determine the cytotoxic lymphocyte (CTL) activity employs lymphocytes from either immunized (sensitized) mice or DBA/2 tumor dormant state animals in various stages of the tumor dormant state (TDS). The assay employs L5178Y target cells labeled with ^51 Chromium and effector cells (sensitized lymphocytes) from the above-mentioned sources. Effector-target cell ratios will vary with different experimental conditions and may or may not include irradiated stimulator L5178Y cells. Results are expressed as % lysis of target cells based on ratio of cpm of test group over cpm of total release (maximum) both of which are corrected for spontaneous release of ^51 Cr. The assay can be performed as an 8 or 18 hour release assay.
Ten days later the resultant tumor nodule, about 1 cm in size, is surgically excised. If the excision was successful, no subcutaneous tumors develop at the site of implantation. […] These mice are considered to be in the tumor dormant state.
The effect of Cpd. 1 on cytotoxic lymphocyte (CTL) activity is measured using five DBA/2 mice in the early stage of the TDS, 10 days after challenge with viable L5178Y tumor cells. Six doses of Cpd. 1, 0.001, 0.01, 0.1, 1.0, 10, or 100 μg/ml or just buffer are added in 100 μl volumes to MLTC microculture wells containing washed spleen lymphocytes from the DBA/2 mice, effector, and L5178Y target cells at varying E/T ratios. The MLTC reaction is performed in the presence or absence of irradiated L5178Y stimulator cells.
Five DBA/2 mice in the early stage of the TDS, 10 days after challenge with viable L5178Y tumor cells were used to measure the effect of Cpd. 1 on CTL activity. Two doses of Cpd. 1, 10, or 100 μg/ml, or just buffer were added in 100 μl volumes to the MLTC microculture wells containing washed spleen lymphocytes from the DBA/2 mice, effector and L5178Y target cells at varying E/T ratios. The MLTC reaction was performed in the presence or absence of irradiated L5178Y stimulator cells.
DBA/2 mice in the early stage of TDS, […] with viable L5178Y tumor cells, were used to measure the effect of Cpd. 2 on CTL activity. Cpd. 2, 0.1, 1.0, 10 or 100 μg/ml, or just buffer was added in 100 μl volumes to MLTC microculture wells containing washed spleen lymphocytes from DBA/2 mice, effector, and L5178Y target cells at varying E/T ratios. The MLTC reaction was performed in the presence or absence of irradiated L5178Y stimulator cells.
An MLTC assay is performed to assess the CTL activity and tumor target cell specificity of Cpd. 1. Tumor dormant spleen cells and normal spleen cells of DBA/2 mice are used as effector cells. Irradiated L5178Y cells are used as stimulator cells. ^51 Cr-labeled L5178Y cells and FLC-745 cells are used as target cells. The effector/target ratios studied are 100:1, 30:1 and 10:1.

Cc1ccc(C2(O)C(=O)OC3C(O)COC32O)o1.Cc1ccc(C2(O)C(=O)OC3C(O)COC32O)o1.O=C1CCC(=O)O1 (stereo not drawn) [Cpd. 1]
% Lysis (0.001 μg/ml, E/T 10:1, TDS DBA/2, with stimulator cells): 16.7%
% Lysis (0.001 μg/ml, E/T 10:1, TDS DBA/2, without stimulator cells): 3.9%
% Lysis (0.001 μg/ml, E/T 30:1, TDS DBA/2, with stimulator cells): 40.2%
% Lysis (0.001 μg/ml, E/T 30:1, TDS DBA/2, without stimulator cells): 12.2%
% Lysis (0.001 μg/ml, E/T 100:1, TDS DBA/2, with stimulator cells): 71.1%
% Lysis (0.001 μg/ml, E/T 100:1, TDS DBA/2, without stimulator cells): 23.4%
% Lysis (0.01 μg/ml, E/T 10:1, TDS DBA/2, with stimulator cells): 20.6%
% Lysis (0.01 μg/ml, E/T 10:1, TDS DBA/2, without stimulator cells): 3.5%
% Lysis (0.01 μg/ml, E/T 30:1, TDS DBA/2, with stimulator cells): 55.8%
% Lysis (0.01 μg/ml, E/T 30:1, TDS DBA/2, without stimulator cells): 15.7%
% Lysis (0.01 μg/ml, E/T 100:1, TDS DBA/2, with stimulator cells): 77.1%
% Lysis (0.01 μg/ml, E/T 100:1, TDS DBA/2, without stimulator cells): 26.0%
% Lysis (0.1 μg/ml, E/T 10:1, TDS DBA/2, with stimulator cells): 20.2%
% Lysis (0.1 μg/ml, E/T 10:1, TDS DBA/2, without stimulator cells): 3.5%
% Lysis (0.1 μg/ml, E/T 30:1, TDS DBA/2, with stimulator cells): 51.0%
% Lysis (0.1 μg/ml, E/T 30:1, TDS DBA/2, without stimulator cells): 14.8%
% Lysis (0.1 μg/ml, E/T 100:1, TDS DBA/2, with stimulator cells): 79.0%
% Lysis (0.1 μg/ml, E/T 100:1, TDS DBA/2, without stimulator cells): 31.6%
% Lysis (1.0 μg/ml, E/T 10:1, TDS DBA/2, with stimulator cells): 15.6%
% Lysis (1.0 μg/ml, E/T 10:1, TDS DBA/2, without stimulator cells): 4.6%
% Lysis (1.0 μg/ml, E/T 30:1, TDS DBA/2, with stimulator cells): 46.0%
% Lysis (1.0 μg/ml, E/T 30:1, TDS DBA/2, without stimulator cells): 20.0%
% Lysis (1.0 μg/ml, E/T 100:1, TDS DBA/2, with stimulator cells): 71.5%
% Lysis (1.0 μg/ml, E/T 100:1, TDS DBA/2, without stimulator cells): 40.1%
% Lysis (10 μg/ml, E/T 6.25:1, TDS DBA/2, with stimulator cells): 60.5%
% Lysis (10 μg/ml, E/T 6.25:1, TDS DBA/2, without stimulator cells): .7%
% Lysis (10 μg/ml, E/T 10:1, TDS DBA/2, with stimulator cells): 15.9%
% Lysis (10 μg/ml, E/T 10:1, TDS DBA/2, without stimulator cells): 4.6%
% Lysis (10 μg/ml, E/T 12.5:1, TDS DBA/2, with stimulator cells): 67.1%
% Lysis (10 μg/ml, E/T 12.5:1, TDS DBA/2, without stimulator cells): 6.9%
% Lysis (10 μg/ml, E/T 25:1, TDS DBA/2, with stimulator cells): 72.0%
% Lysis (10 μg/ml, E/T 25:1, TDS DBA/2, without stimulator cells): 8.1%
% Lysis (10 μg/ml, E/T 30:1, TDS DBA/2, with stimulator cells): 42.0%
% Lysis (10 μg/ml, E/T 30:1, TDS DBA/2, without stimulator cells): 16.8%
% Lysis (10 μg/ml, E/T 50:1, TDS DBA/2, with stimulator cells): 75.7%
% Lysis (10 μg/ml, E/T 50:1, TDS DBA/2, without stimulator cells): 12.8%
% Lysis (10 μg/ml, E/T 100:1, TDS DBA/2, with stimulator cells): 74.3%
% Lysis (10 μg/ml, E/T 100:1, TDS DBA/2, without stimulator cells): 36.3%
% Lysis (100 μg/ml, E/T 6.25:1, TDS DBA/2, with stimulator cells): 56.3%
% Lysis (100 μg/ml, E/T 6.25:1, TDS DBA/2, without stimulator cells): 6.1%
% Lysis (100 μg/ml, E/T 10:1, TDS DBA/2, with stimulator cells): 21.2%
% Lysis (100 μg/ml, E/T 10:1, TDS DBA/2, without stimulator cells): 8.6%
% Lysis (100 μg/ml, E/T 12.5:1, TDS DBA/2, with stimulator cells): 75.7%
% Lysis (100 μg/ml, E/T 12.5:1, TDS DBA/2, without stimulator cells): 11.1%
% Lysis (100 μg/ml, E/T 25:1, TDS DBA/2, with stimulator cells): 79.8%
% Lysis (100 μg/ml, E/T 25:1, TDS DBA/2, without stimulator cells): 16.6%
% Lysis (100 μg/ml, E/T 30:1, TDS DBA/2, with stimulator cells): 54.2%
% Lysis (100 μg/ml, E/T 30:1, TDS DBA/2, without stimulator cells): 18.7%
% Lysis (100 μg/ml, E/T 50:1, TDS DBA/2, with stimulator cells): 71.6%
% Lysis (100 μg/ml, E/T 50:1, TDS DBA/2, without stimulator cells): 21.8%
% Lysis (100 μg/ml, E/T 100:1, TDS DBA/2, with stimulator cells): 87.3%
% Lysis (100 μg/ml, E/T 100:1, TDS DBA/2, without stimulator cells): 42.0%
% Lysis (E + D (TDS effector, no stimulator), E/T 10:1): 9.0%
% Lysis (E + D (TDS effector, no stimulator), E/T 30:1): 29.8%
% Lysis (E + D (TDS effector, no stimulator), E/T 100:1): 52.8%
% Lysis (E + S + D (TDS effector, stimulator), E/T 10:1): 34.9%
% Lysis (E + S + D (TDS effector, stimulator), E/T 30:1): 69.2%
% Lysis (E + S + D (TDS effector, stimulator), E/T 100:1): 82.3%
% Lysis (N + D (normal effector, no stimulator), E/T 10:1): -10.3%
% Lysis (N + D (normal effector, no stimulator), E/T 30:1): -11.4%
% Lysis (N + D (normal effector, no stimulator), E/T 100:1): -12.4%
% Lysis (N + S + D (normal effector, stimulator), E/T 10:1): -10.9%
% Lysis (N + S + D (normal effector, stimulator), E/T 30:1): -9.7%
% Lysis (N + S + D (normal effector, stimulator), E/T 100:1): -9.5%
CTL activity of effector cells (in the presence of stimulator cells (Example 28)): significant specific enhancement of CTL activity
CTL activity (several concentrations, any E/T ratio, with or without stimulator cells, TDS): significant increase in CTL activity
